“Also recorded” adds a separate entry of the source.
Tests used:
Type in all cases: cell-based, human
IFNGR1 expression = experiment: qRT-PCR of IFNGR1 in MDA-MB-231 cells; conditions: ER− basal like MDA-MB-231 cells
Protocol: (§1) Total RNA was isolated by using Trizol (Invitrogen) and purified with the RNeasy Mini Kit (Qiagen). The microarray hybridization was performed using the Illumina Gene Expression Sentrix BeadChip HumanRef-8_V3, and data analysis was performed by GeneSpring software from Agilent Technologies as described previously. The analyzed gene sets by GeneSpring were next subjected to Ingenuity Pathway Analysis (IPA) for gene ontology (GO) analysis. Reverse transcription and quantitative PCR assays were performed using High Capacity cDNA Archive kit and KAPA SyBr Fast qPCR kit (KAPA biosystems). For quantification of mRNA levels, 18S level was used as an internal control. All reactions were analyzed in an Applied Biosystems PRISM 7500 Fast Real-Time PCR system in 96-well plate format.
Western Blotting was performed as described previously. Briefly, Cells were scraped, collected, and lysed in RIPA buffer. To release histones from chromatin, cell lysates were further sonicated for 15 sec using a XL2000 Microson Ultrasonic Processor (Misonix). Equal amounts of protein (30 μg) were separated on SDS-polyacrylamide gels and transferred to PVDF membranes. The blots were probed with antibodies against EED (07-368), SUZ12 (07-379), trimethylated H3-K27 (07-449), Acetyl-Histone H3 (06-599), which were purchased from Upstate Biotechnology. IFNGR1 (GIR-94) and anti-IFI16 (1G7) were purchased from Santa Cruz. […]

DU145 cells [1] = experiment: FACS sub-G1 DNA analysis (apoptosis) in DU145 cells; conditions: for apoptosis (sub-G1) after knockdown: siRNA knockdown in combination with IFN-γ
Protocol: (§2) For the assessment of cell death, cells were harvested in 70% ethanol. Fixed cells were stained with Propidium Iodide (P.I) (50 μg/mL). The stained cells were analyzed for DNA content by FACS in a FACSCalibur (Becton Dickinson Instrument). % of cell death was defined as the sub-G1 population quantified using the CellQuest software (Becton Dickinson). The percentage of dead cells or sub-G1 cells was calculated by comparing the results of each experiment to the results from DMSO-treated cells. Each assay was repeated a minimum of three times, with results reported as means+s.e.m.

[2] = system: IFNGR1 expression and STAT1 activation; experiment: qRT-PCR and western blot of IFNGR1 and IFN signaling in MCF7 cells; conditions: for IFNGR1 expression: ER+ luminal MCF7 cells
Protocol: as §1
Western Blotting was performed as described previously. Briefly, Cells were scraped, collected, and lysed in RIPA buffer. To release histones from chromatin, cell lysates were further sonicated for 15 sec using a XL2000 Microson Ultrasonic Processor (Misonix). Equal amounts of protein (30 μg) were separated on SDS-polyacrylamide gels and transferred to PVDF membranes. The blots were probed with antibodies against EED (07-368), SUZ12 (07-379), trimethylated H3-K27 (07-449), Acetyl-Histone H3 (06-599), which were purchased from Upstate Biotechnology. IFNGR1 (GIR-94) and anti-IFI16 (1G7) were purchased from Santa Cruz. EZH2 phospho S21 (00388) was purchased from Bethyl Laboratories. EZH2 (AC22), P110α PI3K, p-AKT (T308), p-AKT (S473), pSTAT1Y701, total STAT1, Histone H3 (3H1), Beclin-1 and cleaved PARP were purchased from Cell Signaling. Myc and Actin were purchased from Roche Applied Science and Sigma-Aldrich, respectively.

[3] = system: IFNGR1 expression and IFN-γ-STAT1 signaling; experiment: qRT-PCR and western blot of IFNGR1 expression and IFN-γ signaling in DU145 cells
Protocol: All cells were maintained at 37° C. with 5% CO2. Cells were grown until they were 80% confluent before they are treated the respective drugs. For drug treatment, DZNep and GSK126 were purchased from Pharmaron Inc. (Beijing, China), GSK343 was kindly provided by Chemical Probes of University of Toronto, 5′Aza, TSA and human recombinant IFN-γ was purchased from Sigma. For rescue experiment using IFNGR1 blocking antibody, the neutralizing antibody that specifically targets IFNGR1 (anti-CD119, GIR-208, BD Pharmingen) was added to the medium 4 hour prior to the addition of DZNep or/and IFN-γ. Total RNA was isolated by using Trizol (Invitrogen) and purified with the RNeasy Mini Kit (Qiagen). The microarray hybridization was performed using the Illumina Gene Expression Sentrix BeadChip HumanRef-8_V3, and data analysis was performed by GeneSpring software from Agilent Technologies as described previously. The analyzed gene sets by GeneSpring were next subjected to Ingenuity Pathway Analysis (IPA) for gene ontology (GO) analysis. Reverse transcription and quantitative PCR assays were performed using High Capacity cDNA Archive kit and KAPA SyBr Fast qPCR kit (KAPA biosystems). For quantification of mRNA levels, 18S level was used as an internal control. All reactions were analyzed in an Applied Biosystems PRISM 7500 Fast Real-Time PCR system in 96-well plate format. Western Blotting was performed as described previously. Briefly, Cells were scraped, collected, and lysed in RIPA buffer. To release histones from chromatin, cell lysates were further sonicated for 15 sec using a XL2000 Microson Ultrasonic Processor (Misonix). Equal amounts of protein (30 μg) were separated on SDS-polyacrylamide gels and transferred to PVDF membranes. The blots were probed with antibodies against EED (07-368), SUZ12 (07-379), trimethylated H3-K27 (07-449), Acetyl-Histone H3 (06-599), which were purchased from Upstate Biotechnology. IFNGR1 (GIR-94) and anti-IFI16 (1G7) were purchased from Santa Cruz. EZH2 phospho S21 (00388) was purchased from Bethyl Laboratories. EZH2 (AC22), P110α PI3K, p-AKT (T308), p-AKT (S473), pSTAT1Y701, total STAT1, Histone H3 (3H1), Beclin-1 and cleaved PARP were purchased from Cell Signaling. Myc and Actin were purchased from Roche Applied Science and Sigma-Aldrich, respectively.

RWPE1-MYC cells = experiment: FACS cell death analysis in RWPE1-MYC cells; conditions: DZNep (2.5 μM) for 3 days with increasing doses of IFN-γ
Protocol: as §2

DU145 cells [4] = experiment: Cell proliferation assay (CellTiter-Glo) in DU145 cells; conditions: siRNA knockdown combined with IFN-γ treatment
Protocol: The optimal cell seeding was determined empirically for all cell lines by examining the growth of a wide range of seeding densities in a 96-well format to identify conditions that permitted proliferation for 6 days. Cells were then plated at the optimal seeding density 24 h before siRNA or drug treatment in triplicate. Plates were incubated for 6 days at 37° C. in 5% CO2. Cells were then lysed with CellTiter-Glo (CTG) (Promega) and chemiluminescent signal was detected with a microplate reader (TECAN). In addition, an untreated plate of cells was harvested at the time of drug or siRNA addition (T0) to quantify the starting number of cells. CTG values obtained after the 6 day treatment were expressed as percentages of the T0 value and plotted against time of treatment. Cells received 1-5 μM of DZNep, 25 ng/mL of IFN-γ and 0.1-2.5 μM of GSK343 unless stated otherwise for 72-96 h.

[5] = in response to IFN-γ stimulation

Molecule | IFNGR1 expression (IFNGR1 expression) | apoptosis (sub-G1) (DU145 cells [1]; DZNep (2.5 μM) combined with increasing doses of IFN-γ, 3 days) | IFNGR1 expression ([2]; hydrochloride) | STAT1 activation and PARP cleavage ([2]; MCF-7 cells, DZNep co-treated with IFN-γ) | expression of IFN genes ([3]; DZNep (2.5 μM) combined with IFN-γ) | STAT1 phosphorylation ([3]; DZNep (2.5 μM) combined with IFN-γ, 3 days) | IFNGR1 expression ([3]; DZNep (2.5 μM), 3 days, hydrochloride) | IFNAR1 expression ([3]; DZNep treatment) | induction of apoptosis / cell death (RWPE1-MYC cells) | apoptosis (sub-G1) after knockdown (DU145 cells [1]) | apoptosis (sub-G1) after knockdown (DU145 cells [1]; listed as siEZH2) | IFNGR1 expression [2] | cell growth after knockdown (DU145 cells [4]) | IFNGR1 protein expression after knockdown [3] | STAT1 phosphorylation and IFI16 expression after knockdown [3, 5] | activation of IFN genes after knockdown [3, 5]
Cl.Nc1nccc2c1ncn2[C@@H]1C=C(CO)[C@@H](O)[C@H]1O [DZNep, (−)-1-[(1R,4R,5S)-3-(Hydroxymethyl)-4,5-dihydroxy-2-cyclopenten-1-yl]4-aminoimidazo[4,5-c]pyridine hydrochloride] | not seen | synergistic induction of cell death | induction of IFNGR1 at both mRNA and protein levels; also recorded: restored the IFNGR1 expression | increased STAT1 activation and PARP cleavage | strong inductions of IFN genes | strong inductions | induced the expression of IFNGR1; also recorded: induced a marked expression of IFNGR1 | did not change IFNAR1 expression | synergistic effect |  |  |  |  |  |  | 
EZH2 knockdown: EZH2 siRNA: 5′-GACUCUGAAUGCAGUUGCU-3′ (SEQ ID NO: 1) (other strand not given here) | not seen |  |  |  |  |  |  |  |  | apoptosis induction | specifically enhances IFN-γ mediated cell death | induction of IFNGR1 at both mRNA and protein levels | remarkable synergy in cell growth regression | restored the IFNGR1 protein expression | enhanced the STAT1 phosphorylation and the expression of IF116 | robust activation of IFN genes
